We go through one molecule from patent US20140094413A1, “HEPATOCYTE GROWTH FACTOR (HGF) MIMICS AS THERAPEUTIC AGENTS” (WASHINGTON STATE UNIVERSITY, priority 2012, published 2014).

One assay has as its system aged rats. Briefly: Morris water maze, aged rat model. The format is in vivo. The settings on record: aged rats of mixed sex; oral Dihexa 2 mg/kg/day, 8 days. As for the experimental part: Swim speed was determined from these values.
For another assay, the system named is c-Met. Briefly: Augmentation of HGF-dependent c-Met phosphorylation in HEK293 cells. Format: cell-based, human. Particulars: HEK 293 cells treated with HGF+/−Dihexa. As for the experimental part:
augmentation of HGF-dependent c-Met phosphorylation in HEK293 cells, or 2) augmentation of HGF-dependent cell scattering in MDCK cells. All the compounds in Family one were tested using the c-Met phosphorylation assay. […]
Human embryonic kidney cells 293 (HEK293), Madin Darby canine kidney cells (MDCK), and B16F10 murine melanoma cells were grown in DMEM, 10% fetal bovine serum (FBS). Cells were grown to 90-100% confluency before use. For most but not all studies HEK and MDCK cells were serum starved for 24 hours prior to the initiation of drug treatment.
HEK293 cells were seeded in 6 well tissue culture plates and grown to 95% confluency in DMEM containing 10% FBS. The cells were serum deprived for 24 hours prior to the treatment to reduce the basal levels of phospho-Met. […] The lysate was clarified by centrifugation at 15,000 g for 15 minutes, protein concentrations were determined using the BCA total protein assay, and then appropriate volumes of the lysates were diluted with 2× reducing Laemmli buffer and heated for ten minutes at 95° C. […] Proteins were visualized using the Supersignal West Pico Chemiluminescent Substrate system (Pierce, Fenton, Mo.) and molecular weights determined by comparison to protein ladders (BenchMark, Invitrogen; and Kaleidoscope, BioRad). Images were digitized and analyzed using a UVP phosphoimager.

The next assay concerns 6-OHDA lesioned rats. Put plainly: Unilateral 6-OHDA substantia nigra lesion model. The format is in vivo, rat. As to the method: FIG. 41. Dihexa restores performance in the rope hang test. Two weeks after producing a unilateral lesion with 6-OHDA in the substantia nigra, rats were treated with either 0.5 mg/kg of Dihexa or equivalent volumes of the vehicle ip.
FIG. 42A-C. Dihexa restored normal walking in the gait analysis test. Two weeks after producing a unilateral lesion with 6-OHDA in the substantia nigra, rats were treated with either 0.5 mg/kg of Dihexa or equivalent volumes of the vehicle ip. […] A, animal foot prints; B, left stride length; C, right stride length. Note that the dragging of the left hind leg observed in the untreated lesioned rats was absent from the treated group.
FIG. 43. Dihexa restores tyrosine hyroxlase staining, which is indicative of the presence of dopaminiergic neurons in the substantia nigra (SN). Two weeks after the induction of an unilateral 6-OHDA lesion, rats were treated with either 0.5 mg/kg Dihexa or an equivalent volume of vehicle ip. for 34 days.

In the next assay the test system is scopolamine treated rats. Briefly: Morris water maze, scopolamine amnesia model. Particulars: scopolamine ICV.
The mark [1] stands for this setting: 0.5 mg/kg ip, started two weeks after lesion.

Entries after “also recorded” stand apart in the source; their conditions may differ. Where a SMILES comes first, the peptide text is derived from it. [ ]: non-standard residue; d: D form. The star is where a group is joined. Hexanoyl = CCCCCC(=O)*; Ahx = NCCCCCC(=O)O

Procedure for scopolamine treated rats: Male Sprague-Dawley rats (Taconic derived) weighing 390-450 g were maintained with free access to water and food (Harland Tekland F6 rodent diet, Madison, Wis.) except the night prior to surgery when food was removed. Each animal was anesthetized with Ketamine hydrochloride plus Xylazine (100 and 2 mg/kg im. respectively; Phoenix Scientific; St. Joseph, Mo., and Moby; Shawnee, Kans.). […] The guide cannula measured 2.5 cm in overall length and was prepared with a heat bulge placed 2.5 mm from its beveled tip, thus acting as a stop to control the depth of penetration. Once in position, the cannula was secured to the skull with two stainless-steel screws and dental cement. Post-operatively the animals were housed individually in an American Accreditation for Laboratory Animal Care-approved vivarium maintained at 22±1° C. on a 12-h alternating light/dark cycle initiated at 06:00 h. All animals were hand gentled for 5 min per day during the 5-6 days of post-surgical recovery. Histological verification of cannula placement was accomplished by the injection of 5 μl fast-green dye via the guide cannula following the completion of behavioral testing.
A black circular platform (diameter: 12 cm; height: 24 cm) was placed 30 cm from the wall and submerged 2 cm below the water surface. The maze was operationally sectioned into four equal quadrants designated NW, NE, SW, and SE. For each rat the location of the platform was randomly assigned to one of the quadrants and remained fixed throughout the duration of training. Entry points were at the quadrant corners (i.e. N, S, E, and W) and were pseudo-randomly assigned such that each trial began at a different entry point than the preceding trial. Three of the four testing room walls were covered with extra-maze spatial cues consisting of different shapes (circles, squares, triangles) and colors. The swimming path of the animals was recorded using a computerized video tracking system (Chromotrack; San Diego Instruments, CA). […] Swim speed was determined from these values.
Each member of the treatment groups in the scopolamine studies received an icy injection of scopolamine hydrobromide (70 nmol in 2 μl aCSF over a duration of 20 s) 30 min prior to testing followed by Dihexa 10 min prior to testing. Control groups received scopolamine or aCSF 20 min prior to testing followed by aCSF 10 min prior testing. […] The rats in the aged rat study on received Dihexa of aCSF (control group). Briefly, acquisition trials were conducted on 8 consecutive days with 5 trials/day. On the first day of training the animal was placed on the platform for 30 s prior to the first trial. Trials commenced with the placement of the rat facing the wall of the maze at one of the assigned entry points. […] Once the animal located the platform it was permitted a 30 s rest period on the platform. […] The next trial commenced immediately following the rest period.
Following day 8 of acquisition training, one additional trial was conducted during which the platform was removed (probe trial). […] Total time spent within the target quadrant where the platform had been located during acquisition and the number of crossings of that quadrant was recorded.

As to `CCCCCC(=O)N[C@@H](Cc1ccc(O)cc1)C(=O)N[C@H](C(=O)NCCCCCC(N)=O)[C@@H](C)CC` [Dihexa, N-hexanoic-Tyr-Ile-(6)-aminohexanoic amide] (Hexanoyl-Tyr-Ile-[Ahx]-NH2), the “Water maze performance of aged rats vs untreated controls” value in the assay with aged rats is “preformed significantly better in the water maze than untreated rats; also recorded: performed significantly better than untreated controls; also recorded: significantly improved water maze performance”. In the assay with c-Met, the “Effect on HGF activation (phosphorylation) of c-Met” value is listed as “dramatically augment the ability of HGF to activate c-Met; also recorded: work synergistically to activate c-Met; also recorded: enhances the activity of HGF shifting its concentration curve to the left”. For the same molecule, the “Tyrosine hydroxylase staining in the substantia nigra” value in the assay on 6-OHDA lesioned rats (0.5 mg/kg ip for 34 days / six weeks) was “dramatic restoration of tyrosine hydroxylase (TH) staining; also recorded: completely restored the tyrosine hydroxylase staining in the SN”. The “Gait analysis, stride length” value in the assay with 6-OHDA lesioned rats (setting [1]) is listed as “recovery of normal motor function; also recorded: completely restored the normal stride length”. In the assay on 6-OHDA lesioned rats (setting [1]), the “Rope hang test performance” value is “completely restores performance in the rope hang test; also recorded: completely restored the performance of the treated animals on the rope hang test”. For the same molecule, in the assay on 6-OHDA lesioned rats (three months of Dihexa treatment), the “Recovery of SN TH staining” value is ~100%. Further, the “Water maze latency to find the pedestal: reversal of scopolamine deficits” value in the assay with scopolamine treated rats (Dihexa ICV high dose (100 μmoles, 100 pmoles elsewhere in the source), 5 trials/day, 8 days) was “reversed scopolamine-dependent learning deficits; also recorded: completely overcome the scopolamine deficits”; with scopolamine treated rats (Dihexa ICV low dose 10 μmoles), “not 10 μmoles reversed scopolamine-dependent learning deficits”; in the assay on scopolamine treated rats (Dihexa IP 0.5 mg/kg (high dose)) it was “completely reverse the deficit seen with scopolamine”; in the assay on scopolamine treated rats (Dihexa orally 2 mg/kg/day (high dose), 2 mg/kg/day), “no different than controls; also recorded: completely overcome the scopolamine deficits; also recorded: completely reverse the deficit seen with scopolamine; also recorded: completely reverse the deficit produced by scopolamine”.
